From patent publication US11180760B2, “Identification of molecular pathways and methods of use thereof for treating retinal neurodegeneration and other neurodegenerative disorders” (THE JOHNS HOPKINS UNIVERSITY, priority 2012, dated 2021)

Assays:
[1] = tested on: RGCs; experiment: RGCs transfected with MAP3K12/MAP3K13 siRNA then plated in sunitinib or VX680, survival at 72 hours; assay type: cell-based, mice; details: RGCs transfected with 10 nM siRNA against MAP3K12 and MAP3K13 alone or in combination, 0, 12, 37, 111, 333, 1000 nM drug (FIG. 3F)
Protocol: RGCs were transfected with 10 nM siRNA against MAP3K12 and MAP3K13 alone or in combination and then plated in 0, 12, 37, 111, 333, and 1000 nM sunitinib (FIG. 3F on left) or VX680 (FIG. 3F on right). Survival at 72 hours is shown.

[2] = tested on: primary RGCs; experiment: Primary RGC survival in neurotrophin-depleted media with kinase inhibitors (calcein AM)
Protocol: To determine the neuroprotective effects of the broad-spectrum kinase inhibitors, sunitinib and VX680, primary RGCs were plated in neurotrophin-depleted media and stained with calcein AM at 72 hours in the absence (vehicle) or presence of 1 μM sunitinib (FIG. 1, Panel A).
Retinas were isolated from postnatal 0-5-d mice and dissociated with papain. Microglia were immunodepleted with anti-CD11b conjugated Dynabeads (Life Technologies). The suspension of retinal cells was immunopanned on plates preconjugated with anti-Thy1.2 antibody (Serotec, MCA028) and goat antimouse IgM (Jackson Immunoresearch) at room temperature (RT). After washing, retinal ganglion cellS (RGCs) were released from the plate by a cell lifter, counted, and seeded at a density of 10,000 per well in 96-well plates in the media composed of Neurobasal (Life Technologies), B27, N2 supplement, Lglutamine, and penicillin/streptomycin. After a 72-h culture at 37° C., RGCs were stained with calceinAM (acetomethoxy derivate of calcein), ethidium homodimer, and Hoechst 33342. Images were taken from portions of each well with a Cellomics ArrayScan VTI HCS Reader (Thermo Fisher), and cell survival was quantified using the Cellomics Neuronal Profiling bioapplication. As indicated, RGC viability was alternatively measured by Cell-Titer-Glo (Promega) luminescence.

SMILES: Cc1cc(Nc2cc(N3CCN(C)CC3)nc(Sc3ccc(NC(=O)C4CC4)cc3)n2)n[nH]1 [VX680]
- cell viability, survival at 72 hours [1]: higher cell viability
- survival of primary RGCs at higher doses ([2]; at higher doses (FIG. 1B)): greater number of viable cells
- survival of primary RGCs in response to increasing doses ([2]; increasing doses (FIG. 1B)): neuroprotective
